These are literature values, as cited in patent US7705146B2, “Hepatitis C inhibitor peptide analogs” (Boehringer Ingelheim International GmbH, priority 2004, dated 2010).

Structures are written as SMILES.

This data set relates to hepatitis C virus. To be noted: two day clinical trial, patients infected with the hepatitis C virus.

As to `COc1ccc2c(O[C@@H]3C[C@H]4C(=O)N[C@]5(C(=O)O)C[C@H]5/C=C\CCCCC[C@H](NC(=O)OC5CCCC5)C(=O)N4C3)cc(-c3csc(NC(C)C)n3)nc2c1` [BILN 2061], the “reduction of viral loads in patients” value is reported as “effective in rapidly reducing viral loads”.
